# According to patent publication US8901129B2, “Methods of facilitating neural cell survival using GDNF family ligand (GFL) mimetics or RET signaling pathway activators” (GeneCode AS, priority 2009, dated 2014):
# Columns and labels:
# 6-OHDA-treated rats = assay: Side effects / toxic effects after intrastriatal injection in 6-OHDA-treated rats; format: in vivo; conditions: injected intrastriatally
# Experimental: GDNF mimetics compounds, GDNF or vehicle is administered to the striatum at 3 weeks after the exposure to the neurotoxin 6-OHDA. The selective damage to dopaminergic neurons in the SNc, as well as striatal levels of dopamine and its metabolites are evaluated 12 weeks after the injection of 6-OHDA with tyrosine hydroxylase (TH) immunohistochemistry and HPLC, respectively. In addition, the behavioral impairment of rats is evaluated by forelimb asymmetry test (cylinder test), amphetamine induced rotation asymmetry test and Y-maze test for stereotypic spontaneous rotation deficits.
# On day 21, rats are re-anesthetized with 5% isoflurane (in 70% N2O and 30% O2; flow 300 ml/min) and placed in a stereotactic frame. During the operation concentration of anesthetic is reduced to 1-1.5%. The rectal temperature is maintained at 37.0±1.0° C. with a homeothermic blanket system. The right brain hemisphere is exposed through a small craniectomy to the skull. A stereotaxic injection of the test compound, GDNF or vehicle is made into the right striatum. Each dosing solution is infused at a speed of 1 μl/min and is equally distributed between 4 sites at the following coordinates: AP+1.0, ML+2.8, DV−6.0, −5.5, −5.0 and −4.4 mm. The cannula is left in place for another 5 min before being withdrawn. The hole in the skull is subsequently filled with repair material and the skin is closed and disinfected. The rats are allowed to recover from anesthesia and are carefully monitored for possible post surgical complications. The animals are returned to the home cages with ad libitum access to food and water.
# Animals are monitored daily by laboratory personnel. […] Definitions of acceptable endpoints include: no spontaneous movements and inability to drink or eat in 24-h observation period, massive bleeding, spontaneous inflammation, missing anatomy, swelling or tumors larger than 20 mm, and inability to right itself in 30 sec period.
# GFRα1/RET = target: T1, GFRα1/RET (Homo sapiens, UniProt P07949+P56159); assay: RET phosphorylation by BT compounds, IP and Western blotting (FIG. 6A); format: cell-based; conditions: 100 μM, 15 min; MG87 RET fibroblasts transfected with GFRα1
# T1 construct: Full-length human GFRα1 cDNA (Sidorova et al., unpublished) subcloned in pcDNA6; expressed in transfected cells; host or cells: MG87RET murine fibroblasts transiently transfected with GFRα1
# T1 sequence (P56159 25-429 limits assumed, species assumed): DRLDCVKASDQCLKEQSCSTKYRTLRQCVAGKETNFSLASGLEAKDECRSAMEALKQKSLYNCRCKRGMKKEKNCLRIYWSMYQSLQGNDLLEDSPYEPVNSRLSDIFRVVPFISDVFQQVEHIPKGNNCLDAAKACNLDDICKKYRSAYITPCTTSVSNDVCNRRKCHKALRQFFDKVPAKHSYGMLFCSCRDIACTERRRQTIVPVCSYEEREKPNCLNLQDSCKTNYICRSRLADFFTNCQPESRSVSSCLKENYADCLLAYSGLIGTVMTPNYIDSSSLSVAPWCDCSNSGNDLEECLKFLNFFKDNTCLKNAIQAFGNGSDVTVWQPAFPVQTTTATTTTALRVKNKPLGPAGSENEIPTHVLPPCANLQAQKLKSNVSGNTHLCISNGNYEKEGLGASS
# T1 sequence (P07949 29-1114, species assumed): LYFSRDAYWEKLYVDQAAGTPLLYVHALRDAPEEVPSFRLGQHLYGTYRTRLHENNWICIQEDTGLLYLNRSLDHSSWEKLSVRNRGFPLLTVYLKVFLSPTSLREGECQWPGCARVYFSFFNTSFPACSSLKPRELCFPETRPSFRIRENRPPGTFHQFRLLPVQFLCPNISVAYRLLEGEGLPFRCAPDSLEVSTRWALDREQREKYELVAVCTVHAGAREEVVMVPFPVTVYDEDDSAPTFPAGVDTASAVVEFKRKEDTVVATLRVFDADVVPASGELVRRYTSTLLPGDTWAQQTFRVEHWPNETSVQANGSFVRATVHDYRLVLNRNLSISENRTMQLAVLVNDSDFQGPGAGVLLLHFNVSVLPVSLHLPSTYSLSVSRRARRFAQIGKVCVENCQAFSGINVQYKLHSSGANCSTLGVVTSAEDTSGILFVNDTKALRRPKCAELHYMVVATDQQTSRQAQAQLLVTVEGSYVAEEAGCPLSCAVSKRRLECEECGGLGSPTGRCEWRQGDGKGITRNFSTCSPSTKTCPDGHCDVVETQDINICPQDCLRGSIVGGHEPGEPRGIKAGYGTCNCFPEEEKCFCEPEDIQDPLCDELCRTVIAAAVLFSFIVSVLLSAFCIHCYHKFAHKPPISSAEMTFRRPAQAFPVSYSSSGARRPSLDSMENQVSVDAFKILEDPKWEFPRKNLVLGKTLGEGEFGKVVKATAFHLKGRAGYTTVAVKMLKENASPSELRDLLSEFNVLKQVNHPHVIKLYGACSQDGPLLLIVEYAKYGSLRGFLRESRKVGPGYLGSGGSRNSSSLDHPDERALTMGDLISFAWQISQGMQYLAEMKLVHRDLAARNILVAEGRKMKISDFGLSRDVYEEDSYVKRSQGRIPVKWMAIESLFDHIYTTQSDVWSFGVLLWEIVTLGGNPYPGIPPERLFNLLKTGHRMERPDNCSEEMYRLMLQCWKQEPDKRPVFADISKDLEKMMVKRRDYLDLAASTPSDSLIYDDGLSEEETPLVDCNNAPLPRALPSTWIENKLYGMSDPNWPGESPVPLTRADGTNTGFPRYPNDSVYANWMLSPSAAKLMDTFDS
# Experimental: MG87RET cells were plated on 35 mm tissue culture dishes the day before the experiment. Cells were transfected with GFRα1, GFRα3 or with an vector encoding for GFP. On the day of the experiment cells were starved for 4 hours in serum-free DMEM and stimulated with the investigated compounds (structures shown in the description of FIG. 6, above) at 100 μM concentration or with 100 ng/ml of GDNF or ARTN (positive control) for 15 min. Then cells were washed once with ice-cold PBS containing 1 mM Na3VO4 and lysed on ice in 1 ml per well of RIPA-modified buffer (50 mM Tris-HCl, pH 7.4, 150 mM NaCl, 1 mM EDTA, 1% NP-40, 1% TX-100, 10% glycerol, EDTA-free protease inhibitor cocktail (Roche), 1 mM Na3VO4, 2.5 mg/ml of sodium deoxycholate, 1 mM PMSF. Ret was immunoprecipitated by anti-RET C-20 antibodies (Santa-Cruz Biotechnology, Inc.). Precipitated proteins were resolved on 7.5% SDS-PAGE and then transferred onto a nitrocellulose membrane. Membrane was blocked for 15 min at room temperature by 10% nonfat dry milk in TBS-T and probed with anti-phosphotyrosine antibodies (clone 4G10, Upstate Biotechnology) diluted 1:1000 in TBS-T containing 3% nonfat dry milk for 2 hours at room temperature. The membranes were washed 3 times for 5 min in TBS-T and incubated in the 1:3000 solution of secondary anti-mouse antibodies conjugated with HRP (DAKO) diluted in TBS-T containing 3% nonfat dry milk for 45 min at room temperature. Membranes were washed with TBS-T for 5×10 min. Stained bands were visualized with ECL reagent (Pierce) using LAS3000 imaging program. To confirm equal loading of the proteins, membranes were probed with anti-RET C-20 antibodies (1:500, Santa-Cruz Biotechnology, inc.) after stripping. We used secondary anti-goat antibodies conjugated with HRP (1:1500, DAKO) to detect C-20.
SMILES,toxic effects in behavioral assays (6-OHDA-treated rats),RET phosphorylation via GFRα1 (GFRα1/RET)
CCN(CC)S(=O)(=O)c1ccc(OC)c(N2CCN(C(=O)c3cc(F)ccc3C(F)(F)F)CC2)c1 [BT13],did not cause toxic effects,strongly activated RET
COc1cc2c(cc1OC)CN(S(=O)(=O)c1ccc(OC)c(N3CCN(C(=O)c4cc(F)ccc4C(F)(F)F)CC3)c1)CC2 [BT18],did not cause toxic effects,likely the weaker GFRα1/RET agonists
COc1ccc(S(=O)(=O)N2CCc3ccccc3C2)cc1N1CCN(C(=O)c2cc(F)ccc2C(F)(F)F)CC1 [BT16],did not cause toxic effects,strongly activated RET
